Test results reported in ChEMBL document CHEMBL1201862, “PubChem BioAssay data set” (2004).
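1) Cells in 96-well plates. 2) Compound, 48 h, 5 concentrations. 3) Linear interpolation between surrounding doses. 4) Unreached endpoint = highest concentration. The concentration for 50% growth inhibition is given as GI50.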 The source made the active and inactive calls. Cut-off read from the data, not from the text of the source: active = GI50 up to about 1.1 µM and inactive = higher.

What was measured:
Assay in all cases: DTP human tumour cell line panel, 48 h
CCRF-CEM = system: CCRF-CEM
NCI-H226 = system: NCI-H226
SNB-75 = system: SNB-75
MOLT-4 = system: MOLT-4
SK-OV-3 = system: SK-OV-3
NCI-H23 = system: NCI-H23
SN12C = system: SN12C
HCT-15 = system: HCT-15
MDA-MB-231 = system: MDA-MB-231
Hs-578T = system: Hs-578T
UACC-257 = system: UACC-257
DU-145 = system: DU-145
OVCAR-3 = system: OVCAR-3
SK-MEL-2 = system: SK-MEL-2
U-251 = system: U-251
K562 = system: K562
ACHN = system: ACHN
M14 = system: M14
MCF7 = system: MCF7
SNB-19 = system: SNB-19
OVCAR-5 = system: OVCAR-5
NCI-H522 = system: NCI-H522
NCI-H460 = system: NCI-H460
HCT-116 = system: HCT-116
UACC-62 = system: UACC-62
RPMI-8226 = system: RPMI-8226
TK-10 = system: TK-10
KM12 = system: KM12
LOX IMVI = system: LOX IMVI
SF-268 = system: SF-268
BT-549 = system: BT-549
HL-60 = system: HL-60
SR = system: SR
UO-31 = system: UO-31
HOP-62 = system: HOP-62
HCC 2998 = system: HCC 2998
EKVX = system: EKVX
SF-539 = system: SF-539
A498 = system: A498
T47D = system: T47D
SK-MEL-28 = system: SK-MEL-28
Malme-3M = system: Malme-3M
HT-29 = system: HT-29
RXF 393 = system: RXF 393
MDA-MB-435 = system: MDA-MB-435
NCI/ADR-RES = system: NCI/ADR-RES
IGROV-1 = system: IGROV-1
SW-620 = system: SW-620
SF-295 = system: SF-295
OVCAR-4 = system: OVCAR-4
MDA-N = system: MDA-N
SK-MEL-5 = system: SK-MEL-5
786-0 = system: 786-0
COLO 205 = system: COLO 205
HOP-92 = system: HOP-92
CAKI-1 = system: CAKI-1
OVCAR-8 = system: OVCAR-8
A549 = system: A549
PC-3 = system: PC-3

## COC(=O)C1=C(O)C(C(=O)OC)[C@@]2(O)[C@@H](C(=O)OC)CC[C@@H]1[C@@H]2C(=O)OC (stereo partly specified)
CCRF-CEM
  GI50: 25.2 µM (inactive)
NCI-H226
  GI50: 20.1 µM (inactive)
SNB-75
  GI50: 17.9 µM (inactive)
MOLT-4
  GI50: 29.4 µM (inactive)
SK-OV-3
  GI50: 19.2 µM (inactive)
NCI-H23
  GI50: 17.8 µM (inactive)
SN12C
  GI50: 25.4 µM (inactive)
HCT-15
  GI50: 20.6 µM
MDA-MB-231
  GI50: 25.1 µM (inactive)
Hs-578T
  GI50: 11.1 µM (inactive)
UACC-257
  GI50: 27.4 µM (inactive)
DU-145
  GI50: 44.7 µM (inactive)
OVCAR-3
  GI50: 21.3 µM (inactive)
SK-MEL-2
  GI50: 16 µM (inactive)
U-251
  GI50: 22.3 µM (inactive)
K562
  GI50: 25.4 µM (inactive)
ACHN
  GI50: 39.2 µM (inactive)
M14
  GI50: 22.6 µM (inactive)
MCF7
  GI50: 35.6 µM (inactive)
SNB-19
  GI50: 43.4 µM (inactive)
OVCAR-5
  GI50: 28.2 µM (inactive)
NCI-H522
  GI50: 10.6 µM (inactive)
NCI-H460
  GI50: 16.1 µM (inactive)
HCT-116
  GI50: 30.4 µM (inactive)
UACC-62
  GI50: 30 µM (inactive)
RPMI-8226
  GI50: 27.2 µM (inactive)
TK-10
  GI50: 23 µM (inactive)
KM12
  GI50: 21.6 µM (inactive)
LOX IMVI
  GI50: 21.3 µM (inactive)
SF-268
  GI50: 29.4 µM (inactive)
BT-549
  GI50: 25.5 µM (inactive)
HL-60
  GI50: 23.3 µM (inactive)
SR
  GI50: 14.9 µM (inactive)
UO-31
  GI50: 29.2 µM (inactive)
HOP-62
  GI50: 23.8 µM (inactive)
HCC 2998
  GI50: 16.4 µM (inactive)
EKVX
  GI50: 23 µM (inactive)
SF-539
  GI50: 18.6 µM (inactive)
A498
  GI50: 16.5 µM (inactive)
T47D
  GI50: 54.2 µM (inactive)
SK-MEL-28
  GI50: 27.9 µM (inactive)
Malme-3M
  GI50: 21.5 µM (inactive)
HT-29
  GI50: > 100 µM (inactive)
RXF 393
  GI50: 12.2 µM (inactive)
MDA-MB-435
  GI50: 18.2 µM (inactive)

## COc1cc(S(=O)(=O)N/N=C/C=C/c2ccccc2)c(OC)cc1NC(C)=O
CCRF-CEM
  GI50: 69.5 µM (inactive)
SNB-75
  GI50: > 100 µM (inactive)
SK-OV-3
  GI50: > 100 µM (inactive)
NCI-H23
  GI50: 41.8 µM (inactive)
SN12C
  GI50: 51.9 µM (inactive)
HCT-15
  GI50: 19.5 µM
NCI/ADR-RES
  GI50: 9.59 µM (inactive)
Hs-578T
  GI50: 26.4 µM (inactive)
UACC-257
  GI50: 30.2 µM (inactive)
DU-145
  GI50: 31.8 µM (inactive)
IGROV-1
  GI50: 17.8 µM (inactive)
SW-620
  GI50: 25.4 µM (inactive)
SF-295
  GI50: > 100 µM (inactive)
OVCAR-4
  GI50: 19.6 µM (inactive)
OVCAR-3
  GI50: 40.7 µM (inactive)
SK-MEL-2
  GI50: 47 µM (inactive)
MDA-N
  GI50: 78.9 µM (inactive)
ACHN
  GI50: > 100 µM (inactive)
SK-MEL-5
  GI50: 3.73 µM (inactive)
M14
  GI50: 21.9 µM (inactive)
MCF7
  GI50: 52.2 µM (inactive)
SNB-19
  GI50: > 100 µM (inactive)
OVCAR-5
  GI50: 38.6 µM (inactive)
NCI-H522
  GI50: 25.2 µM (inactive)
HCT-116
  GI50: 91.2 µM (inactive)
UACC-62
  GI50: 86.9 µM (inactive)
RPMI-8226
  GI50: 19.1 µM (inactive)
KM12
  GI50: 42.3 µM (inactive)
786-0
  GI50: 91.8 µM (inactive)
LOX IMVI
  GI50: 15.5 µM (inactive)
SF-268
  GI50: 35.4 µM (inactive)
BT-549
  GI50: 42.1 µM (inactive)
COLO 205
  GI50: 17.7 µM (inactive)
HL-60
  GI50: 33 µM (inactive)
HOP-92
  GI50: 30.3 µM (inactive)
SR
  GI50: 12.3 µM (inactive)
UO-31
  GI50: 42.9 µM (inactive)
HOP-62
  GI50: > 100 µM (inactive)
CAKI-1
  GI50: 16 µM (inactive)
EKVX
  GI50: 5.14 µM (inactive)
SF-539
  GI50: 5.26 µM (inactive)
A498
  GI50: > 100 µM (inactive)
T47D
  GI50: 69.5 µM (inactive)
SK-MEL-28
  GI50: 56.5 µM (inactive)
Malme-3M
  GI50: 35.6 µM (inactive)
HT-29
  GI50: 9.62 µM (inactive)
RXF 393
  GI50: 21.1 µM (inactive)
OVCAR-8
  GI50: 12.2 µM (inactive)
A549
  GI50: > 100 µM (inactive)
PC-3
  GI50: 77.8 µM (inactive)
MDA-MB-435
  GI50: 38.8 µM (inactive)

## Cn1c(=O)c2c(ncn2CCNC(CO)C(O)c2ccc([N+](=O)[O-])cc2)n(C)c1=O (stereo unspecified)
CCRF-CEM
  GI50: > 100 µM (inactive)
NCI-H226
  GI50: > 100 µM (inactive)
MOLT-4
  GI50: > 100 µM (inactive)
SK-OV-3
  GI50: > 100 µM (inactive)
NCI-H23
  GI50: > 100 µM (inactive)
SN12C
  GI50: > 100 µM (inactive)
HCT-15
  GI50: > 100 µM
MDA-MB-231
  GI50: > 100 µM (inactive)
NCI/ADR-RES
  GI50: > 100 µM (inactive)
Hs-578T
  GI50: > 10 µM (inactive)
UACC-257
  GI50: > 100 µM (inactive)
IGROV-1
  GI50: > 10 µM (inactive)
SW-620
  GI50: > 10 µM (inactive)
SF-295
  GI50: > 100 µM (inactive)
OVCAR-4
  GI50: > 100 µM (inactive)
OVCAR-3
  GI50: > 100 µM (inactive)
SK-MEL-2
  GI50: > 100 µM (inactive)
U-251
  GI50: > 100 µM (inactive)
MDA-N
  GI50: > 100 µM (inactive)
K562
  GI50: > 100 µM (inactive)
ACHN
  GI50: > 100 µM (inactive)
SK-MEL-5
  GI50: > 100 µM (inactive)
M14
  GI50: > 100 µM (inactive)
MCF7
  GI50: > 100 µM (inactive)
SNB-19
  GI50: > 100 µM (inactive)
NCI-H522
  GI50: > 100 µM (inactive)
NCI-H460
  GI50: > 100 µM (inactive)
HCT-116
  GI50: > 100 µM (inactive)
UACC-62
  GI50: > 100 µM (inactive)
RPMI-8226
  GI50: > 100 µM (inactive)
TK-10
  GI50: > 100 µM (inactive)
KM12
  GI50: > 100 µM (inactive)
786-0
  GI50: > 100 µM (inactive)
LOX IMVI
  GI50: > 100 µM (inactive)
SF-268
  GI50: > 100 µM (inactive)
BT-549
  GI50: > 100 µM (inactive)
COLO 205
  GI50: > 100 µM (inactive)
HL-60
  GI50: > 100 µM (inactive)
HOP-92
  GI50: > 100 µM (inactive)
SR
  GI50: > 100 µM (inactive)
UO-31
  GI50: > 100 µM (inactive)
HOP-62
  GI50: > 100 µM (inactive)
CAKI-1
  GI50: > 100 µM (inactive)
HCC 2998
  GI50: > 10 µM (inactive)
EKVX
  GI50: > 100 µM (inactive)
SF-539
  GI50: > 100 µM (inactive)
A498
  GI50: > 100 µM (inactive)
T47D
  GI50: 5.64 µM (inactive)
SK-MEL-28
  GI50: > 100 µM (inactive)
Malme-3M
  GI50: > 100 µM (inactive)
HT-29
  GI50: > 100 µM (inactive)
OVCAR-8
  GI50: > 100 µM (inactive)
A549
  GI50: > 100 µM (inactive)
PC-3
  GI50: > 100 µM (inactive)
MDA-MB-435
  GI50: > 100 µM (inactive)
